Values of other authors as cited in US20260216106A1, “DOSAGE FORM FOR INTRA-ARTICULAR INJECTION […] USE IN THE TREATMENT OF A JOINT DISEASE SUCH AS OSTEOARTHRITIS” (priority 2023, published 2026).

Details: literature (Niel et al 2006)

COc1cc2c(c(OC)c1OC)-c1ccc(OC)c(=O)cc1[C@@H](NC(C)=O)CC2 [colchicine, N-[(7S)-1,2,3,10-tetramethoxy-9-oxo-6,7-dihydro-5H-benzo[a]heptalen-7-yl]acetamide]
lethal dose: 0.8 mg/kg
toxicity limit dose: 0.1 mg/kg
